In brackets after ≈: the same amount, converted by molar mass. Like-named read-outs stand apart in the source and are kept apart here.
What was measured:
Streptococcus pneumoniae = assay: Expanded panel broth microdilution MIC/MBC; format: cell-based
Streptococcus mitis = assay: Expanded panel broth microdilution MIC/MBC; format: cell-based; conditions: for MIC: Streptococcus mitis
[1] = test system: Staphylococcus epidermidis; assay: Expanded panel broth microdilution MIC/MBC; format: cell-based; conditions: for MIC: Staphylococcus epidermidis
Cutibacterium acnes = assay: Expanded panel broth microdilution MIC; format: cell-based
[2] = test system: Peptostreptococcus micros; assay: Expanded panel broth microdilution MIC; format: cell-based
Streptococcus pyogenes = assay: Expanded panel broth microdilution MIC/MBC; format: cell-based
MSSA ATCC 29213 = assay: In-house broth microdilution MIC screening; format: cell-based; conditions: Staphylococcus aureus, read-out: MIC Value, MSSA ATCC 29213
Enterococcus faecalis = assay: Expanded panel broth microdilution MIC/MBC; format: cell-based
Streptococcus anginosus = assay: Expanded panel broth microdilution MIC/MBC; format: cell-based; conditions: for MIC: Streptococcus anginosus
S. aureus = assay: Expanded panel broth microdilution MIC/MBC; conditions: for MIC: Staphylococcus aureus
[3] = test system: Streptococcus dysgalactiae; assay: Expanded panel broth microdilution MIC/MBC; format: cell-based; conditions: for MIC: Streptococcus dysgalactiae
Staphylococcus hominis = assay: Expanded panel broth microdilution MIC; format: cell-based

SMILES: CCCCCCCCCCNCCN[C@@]1(C)C[C@H](O[C@H]2[C@H](Oc3c4cc5cc3Oc3ccc(cc3Cl)[C@@H](O)[C@@H](NC(=O)[C@@H](CC(C)C)NC)C(=O)N[C@@H](CC(N)=O)C(=O)N[C@H]5C(=O)N[C@H]3C(=O)N[C@H](C(=O)N[C@H](C(=O)O)c5cc(O)c(CNCP(=O)(O)O)c(O)c5-c5cc3ccc5O)[C@H](O)c3ccc(c(Cl)c3)O4)O[C@H](CO)[C@@H](O)[C@@H]2O)O[C@@H](C)[C@H]1O [Telavancin, telavancin]
- MIC:MBC (Streptococcus pneumoniae; S. pneumoniae PISP, MBC on one organism): 1
- MIC (Streptococcus pneumoniae; S. pneumoniae PRSP, 1 isolate): 0.03 µg/mL (≈ 0.0171 µM)
- MIC (Streptococcus pneumoniae; Streptococcus pneumoniae): 0.015 µg/mL (≈ 0.00854 µM)
- MIC (Streptococcus pneumoniae; Streptococcus pneumoniae, ATCC49619): 0.03 µg/mL (≈ 0.0171 µM)
- MIC (Streptococcus pneumoniae; Streptococcus pneumoniae, PRSP): 0.03 µg/mL (≈ 0.0171 µM)
- MIC (Streptococcus pneumoniae; Streptococcus pneumoniae, read-out: MIC (median)): 0.02 µg/mL (≈ 0.0114 µM)
- MIC:MBC (Streptococcus mitis; S. mitis MGS, MBC on one organism): 1
- MIC (Streptococcus mitis): 0.03 µg/mL (≈ 0.0171 µM)
- MIC (Streptococcus mitis; ATCC49456): 0.06 µg/mL (≈ 0.0342 µM)
- MIC (Streptococcus mitis; read-out: MIC (median)): 0.05 µg/mL (≈ 0.0285 µM)
- MIC:MBC ([1]; S. epidermidis MRSE, MBC on one organism): 1
- MIC ([1]; ATCC49134, S. epidermidis ATCC 49134, MSSE): 0.12 µg/mL (≈ 0.0684 µM)
- MIC ([1]; MRSE, S. epidermidis MMX 762, MRSE): 0.12 µg/mL (≈ 0.0684 µM)
- MIC ([1]; MRSE, S. epidermidis MMX 5145, MRSE): 0.03 µg/mL (≈ 0.0171 µM)
- MIC ([1]; MRSE, read-out: MIC (median), S. epidermidis MRSE, 2 isolates): 0.12 µg/mL (≈ 0.0684 µM)
- MIC ([1]; S. epidermidis MSSE, 1 isolate): 0.12 µg/mL (≈ 0.0684 µM)
- MIC (Cutibacterium acnes; ATCC6919): 0.03 µg/mL (≈ 0.0171 µM)
- MIC (Cutibacterium acnes; ATCC11827): 0.015 µg/mL (≈ 0.00854 µM)
- MIC (Cutibacterium acnes; read-out: MIC (median)): 0.02 µg/mL (≈ 0.0114 µM)
- MIC ([2]; P. micros, 1 isolate): 0.12 µg/mL (≈ 0.0684 µM)
- MIC ([2]; Parvimonas micra): 0.12 µg/mL (≈ 0.0684 µM)
- MIC (Streptococcus pyogenes; S. pyogenes MMX 946, ermR): 0.06 µg/mL (≈ 0.0342 µM)
- MIC:MBC (Streptococcus pyogenes; S. pyogenes ermR): 1
- MIC (Streptococcus pyogenes; S. pyogenes ermR, 1 isolate): 0.06 µg/mL (≈ 0.0342 µM)
- MIC (Streptococcus pyogenes; Streptococcus pyogenes): 0.06 µg/mL (≈ 0.0342 µM)
- MIC (Streptococcus pyogenes; Streptococcus pyogenes, ATCC19615): 0.06 µg/mL (≈ 0.0342 µM)
- MIC (Streptococcus pyogenes; Streptococcus pyogenes, read-out: MIC (median)): 0.06 µg/mL (≈ 0.0342 µM)
- MIC (MSSA ATCC 29213): 0.063 µg/mL (≈ 0.0359 µM)
- MIC:MBC (Enterococcus faecalis; E. faecalis VSE, MBC on one organism): >8
- MIC:MBC (Enterococcus faecalis; E. faecalis VanA VRE): 8
- MIC (Enterococcus faecalis; E. faecalis VanA VRE, 1 isolate): 1 µg/mL (≈ 0.57 µM)
- MIC (Enterococcus faecalis; Enterococcus faecalis): 0.25 µg/mL (≈ 0.142 µM)
- MIC (Enterococcus faecalis; Enterococcus faecalis, ATCC29212): 0.12 µg/mL (≈ 0.0684 µM)
- MIC (Enterococcus faecalis; Enterococcus faecalis, VRE): 1 µg/mL (≈ 0.57 µM)
- MIC (Enterococcus faecalis; Enterococcus faecalis, read-out: MIC (median)): 0.19 µg/mL (≈ 0.108 µM)
- MIC:MBC (Streptococcus anginosus; S. anginosus AGS): >8
- MIC (Streptococcus anginosus): 0.06 µg/mL (≈ 0.0342 µM)
- MIC (Streptococcus anginosus; ATCC33397): 0.06 µg/mL (≈ 0.0342 µM)
- MIC:MBC (S. aureus; S. aureus MRSA, MBC median of n = 5): 1
- MIC:MBC (S. aureus; S. aureus MSSA, MBC on one organism): 1
- MIC:MBC (S. aureus; S. aureus VISA, MBC median of n = 2): 1
- MIC:MBC (S. aureus; S. aureus hVISA, MBC on one organism): 1
- MIC (S. aureus; ATCC13709 / MSSA, S. aureus ATCC 13709, MSSA): 0.12 µg/mL (≈ 0.0684 µM)
- MIC (S. aureus; ATCC29213 / MSSA, S. aureus ATCC 29213, MSSA): 0.06 µg/mL (≈ 0.0342 µM)
- MIC (S. aureus; ATCC43300 / MRSA, S. aureus ATCC 43300, MRSA): 0.06 µg/mL (≈ 0.0342 µM)
- MIC (S. aureus; ATCCBAA1556|MRSA|USA300, S. aureus ATCC BAA-1556, MRSA, USA300 (expanded panel)): 0.06 µg/mL (≈ 0.0342 µM)
- MIC (S. aureus; ATCCBAA1756|MRSA|NRS384|USA300, S. aureus NRS 384, ATCC BAA-1756, MRSA, USA300): 0.06 µg/mL (≈ 0.0342 µM)
- MIC (S. aureus; MRSA / NRS123 / USA400, S. aureus NRS123, MRSA, USA400): 0.06 µg/mL (≈ 0.0342 µM)
- MIC (S. aureus; MRSA / NRS725 / USA300, S. aureus NRS725, MRSA, USA300): 0.06 µg/mL (≈ 0.0342 µM)
- MIC (S. aureus; MRSA / USA300, S. aureus MMX 3982, MRSA, USA300): 0.06 µg/mL (≈ 0.0342 µM)
- MIC (S. aureus; MRSA, S. aureus MMX 5715, MRSA): 0.06 µg/mL (≈ 0.0342 µM)
- MIC (S. aureus; MRSA, S. aureus MMX 7899, MRSA): 0.06 µg/mL (≈ 0.0342 µM)
- MIC (S. aureus; MRSA, S. aureus MMX 7900, MRSA): 0.06 µg/mL (≈ 0.0342 µM)
- MIC (S. aureus; MRSA, S. aureus MMX 7901, MRSA): 0.03 µg/mL (≈ 0.0171 µM)
- MIC (S. aureus; MRSA, S. aureus MMX 7902, MRSA): 0.06 µg/mL (≈ 0.0342 µM)
- MIC (S. aureus; MRSA, S. aureus MMX 7903, MRSA): 0.06 µg/mL (≈ 0.0342 µM)
- MIC (S. aureus; MRSA, read-out: MIC (median), S. aureus MRSA, 12 isolates): 0.06 µg/mL (≈ 0.0342 µM)
- MIC (S. aureus; MSSA, S. aureus MMX 7907, MSSA): 0.06 µg/mL (≈ 0.0342 µM)
- MIC (S. aureus; MSSA, S. aureus MMX 7908, MSSA): 0.12 µg/mL (≈ 0.0684 µM)
- MIC (S. aureus; MSSA, read-out: MIC (median), S. aureus MSSA, 4 isolates): 0.09 µg/mL (≈ 0.0513 µM)
- MIC (S. aureus; NRS1 / VISA, S. aureus NRS1, VISA, Mu50): 0.5 µg/mL (≈ 0.285 µM)
- MIC (S. aureus; NRS2, S. aureus NRS2, hVISA;Mu3): 0.12 µg/mL (≈ 0.0684 µM)
- MIC (S. aureus; NRS4 / VISA, S. aureus NRS4, VISA): 0.25 µg/mL (≈ 0.142 µM)
- MIC (S. aureus; NRS13 / VISA, S. aureus NRS13, VISA): 0.12 µg/mL (≈ 0.0684 µM)
- MIC (S. aureus; NRS22 / VISA, S. aureus NRS22, VISA): 0.5 µg/mL (≈ 0.285 µM)
- MIC (S. aureus; NRS23, S. aureus NRS23, hVISA): 0.25 µg/mL (≈ 0.142 µM)
- MIC (S. aureus; NRS52 / VISA, S. aureus NRS52, VISA): 0.25 µg/mL (≈ 0.142 µM)
- MIC (S. aureus; VISA, read-out: MIC (median), S. aureus VISA, 5 isolates): 0.25 µg/mL (≈ 0.142 µM)
- MIC (S. aureus; read-out: MIC (median), S. aureus hVISA, 2 isolates): 0.19 µg/mL (≈ 0.108 µM)
- MIC:MBC ([3]; S. dysgalactiae, MBC on one organism): 4
- MIC ([3]; S. dysgalactiae MMX 5121): 0.12 µg/mL (≈ 0.0684 µM)
- MIC ([3]; S. dysgalactiae MMX 5123): 0.25 µg/mL (≈ 0.142 µM)
- MIC ([3]; S. dysgalactiae MMX 5124): 0.03 µg/mL (≈ 0.0171 µM)
- MIC ([3]; read-out: MIC (median), S. dysgalactiae, 3 isolates): 0.12 µg/mL (≈ 0.0684 µM)
- MIC (Staphylococcus hominis): 0.06 µg/mL (≈ 0.0342 µM)
- MIC (Staphylococcus hominis; ATCC27844): 0.06 µg/mL (≈ 0.0342 µM)

Reference: PMC8373216, “Development and Preclinical Evaluation of New Inhaled Lipoglycopeptides for the Treatment of Persistent Pulmonary Methicillin-Resistant Staphylococcus aureus Infections” (Antimicrobial Agents and Chemotherapy, 2021)
